Structures can show the parent of a compound that is named as a salt.

For orientation: IC50 means the concentration that inhibits the measured activity by half. One may read the EC50 as the concentration that produces a half-maximal response.

For the first experiment, the target named is T1, human calcium receptor (Homo sapiens, UniProt P41180).
T1 construct: expressed in transfected cells
T1 sequence (P41180 20-1078): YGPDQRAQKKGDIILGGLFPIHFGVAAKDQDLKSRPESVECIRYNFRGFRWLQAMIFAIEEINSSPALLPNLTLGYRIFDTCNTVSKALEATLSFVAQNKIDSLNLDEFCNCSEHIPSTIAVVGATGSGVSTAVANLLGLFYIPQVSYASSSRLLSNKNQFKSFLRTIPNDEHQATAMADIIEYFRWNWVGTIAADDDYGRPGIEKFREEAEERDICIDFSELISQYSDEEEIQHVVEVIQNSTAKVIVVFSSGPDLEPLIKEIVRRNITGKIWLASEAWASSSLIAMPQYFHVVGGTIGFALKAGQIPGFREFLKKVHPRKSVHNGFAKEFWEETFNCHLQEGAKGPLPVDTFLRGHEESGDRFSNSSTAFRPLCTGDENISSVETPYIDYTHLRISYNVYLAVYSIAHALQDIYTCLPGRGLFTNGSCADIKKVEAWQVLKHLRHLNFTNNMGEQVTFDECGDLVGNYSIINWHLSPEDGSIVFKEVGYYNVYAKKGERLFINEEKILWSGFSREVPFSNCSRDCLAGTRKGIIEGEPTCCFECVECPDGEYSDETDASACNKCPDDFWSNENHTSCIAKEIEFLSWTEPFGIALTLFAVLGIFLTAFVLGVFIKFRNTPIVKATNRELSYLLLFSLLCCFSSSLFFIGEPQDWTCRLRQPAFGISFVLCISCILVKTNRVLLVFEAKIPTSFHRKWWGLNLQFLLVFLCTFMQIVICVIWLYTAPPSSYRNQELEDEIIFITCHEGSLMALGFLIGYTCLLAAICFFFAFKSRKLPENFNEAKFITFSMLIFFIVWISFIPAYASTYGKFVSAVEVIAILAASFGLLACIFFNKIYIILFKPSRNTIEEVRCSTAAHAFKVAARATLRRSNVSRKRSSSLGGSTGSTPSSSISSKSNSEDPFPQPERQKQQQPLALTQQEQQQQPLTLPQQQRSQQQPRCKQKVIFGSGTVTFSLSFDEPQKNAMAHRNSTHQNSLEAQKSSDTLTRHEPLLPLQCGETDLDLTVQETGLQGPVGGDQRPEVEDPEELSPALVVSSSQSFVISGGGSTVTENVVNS
As to the kind of experiment: Calcium Receptor Inhibitor Assay. In kind it is cell-based.
Details: not given
The gist of the method:
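Intracellular Ca^2+ measured with fluo-3 at 37° C in stirred cell suspension. Buffer held 1 mM CaCl2 and 1 mg/mL D-glucose. Compound or vehicle added 90 seconds before extracellular Ca^2+ was raised from 1 to 2 mM, and calcilytic activity scored as concentration-dependent block of the intracellular Ca^2+ rise.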
Regarding `COc1ccc(CC(C)(C)NCC(O)CCc2ccccc2)cc1` (stereo not drawn) [Compound 79, N-(2-Hydroxy-4-phenylbutyl)-1,1-dimethyl-2-(4-methoxyphenyl)ethylamine Hydrochloride], the IC50 is less than 50 µM.
On the same count and under the same terms, for `COc1ccc(CC(C)(C)NCC(O)COC2CCCCC2)cc1` (stereo not drawn) [Compound 93, N-(2-hydroxy-3-cyclohexoxypropyl)-1,1-dimethyl-2-(4-methoxyphenyl)ethylamine] the value was less than 10 µM.
As to `COc1ccc(CC(C)(C)NCC(O)CCCC[N+](=O)[O-])cc1` (racemic) [Compound 164, (R/S)-1-nitro-5-hydroxy-6-[1,1-dimethyl-2-(4-methoxyphenyl)]hexane], the IC50 is less than 50 µM.
Still for that read-out and setting: then `COc1ccc(CC(C)(C)NCCCc2ccccc2)cc1` [Compound 22, N-(3-phenylpropyl)-1,1-dimethyl-2(4-methoxyphenyl)ethylamine], with more than 50 µM.

Staying with this experiment, now noted: HEK 293 4.0–7 cells stably expressing the human calcium receptor; fluo-3; read-out: IC50 for blocking increases of intracellular Ca2+ elicited by extracellular Ca2+.
Consider `COc1ccc(CC(C)(C)NCC(C)(O)COc2ccccc2)cc1` (stereo not drawn) [Compound 101, N-(2-Hydroxy-2-methyl-3-phenoxypropyl)-1,1-dimethyl-2-(4-methoxyphenyl)ethylamine Hydrochloride], for which the IC50 is less than 50 µM.
On the same count and under the same terms, then `COc1ccc(CC(C)(C)NCC(O)COc2ccccc2[N+](=O)[O-])cc1` (stereo not drawn) [Compound 159, N-[2-hydroxy-3-(2-nitrophenoxy)propyl]-1,1-dimethyl-2-(4-methoxyphenyl)ethylamine Hydrochloride], with less than 1 µM; and `CC(C)(Cc1ccc(OC(F)(F)F)cc1)NCC(O)COc1ccccc1` (stereo not drawn) [Compound 111, N-(2-Hydroxy-3-phenoxypropyl)-1,1-dimethyl-2-(4-trifluoromethoxyphenyl)ethylamine Hydrochloride], with less than 10 µM.
For `COc1ccc(CC(C)(C)NCC(O)COc2cccc(OC)c2C#N)cc1` (stereo not drawn) [Compound 118, N-[2-Hydroxy-3-(2-cyano-3-methoxyphenoxy)propyl]-1,1-dimethyl-2-(4-methoxyphenyl)ethylamine Hydrochloride], the IC50 is less than 1 µM.
On the same count and under the same terms, for `COc1ccc(CC(C)(C)NCC(O)COc2ccccc2C#N)cc1` (stereo not drawn) [Compound 142, N-[2-hydroxy-3-(2-cyanophenoxy)propyl]-1,1-dimethyl-2-(4-methoxyphenyl)ethylamine Hydrochloride] the value was less than 1 µM; for `CC(C)c1ccc(CC(C)(C)NCC(O)COc2ccccc2)cc1` (stereo not drawn) [Compound 112, N-(2-Hydroxy-3-phenoxypropyl)-1,1-dimethyl-2-(4-isopropylphenyl)ethylamine Hydrochloride], less than 1 µM; for `COc1ccc(CC(C)(C)NCC(COc2ccccc2)OC)cc1` (stereo not drawn) [Compound 59, N-(2-Methoxy-3-phenoxypropyl)-1,1-dimethyl-2-(4-methoxyphenyl)ethylamine Hydrochloride], less than 10 µM.
Still for that read-out and setting: for `COc1ccc(CC(C)(C)NCC(O)COc2cc(C(F)(F)F)cc(C(F)(F)F)c2)cc1` (stereo not drawn) [Compound 156, N-[2-hydroxy-3-(3,5-bistrifluoromethylphenoxy)propyl]-1,1-dimethyl-2-(4-methoxyphenyl)ethylamine Hydrochloride] the value was less than 1 µM.
Still for that read-out and setting: for `COc1ccc(CC(C)(C)NCC(O)COc2ccc(C(C)C)cc2)cc1` (stereo not drawn) [Compound 145, N-[2-hydroxy-3-(4-iso-propylphenoxy)propyl]-1,1-dimethyl-2-(4-methoxyphenyl)ethylamine Hydrochloride] the value was less than 1 µM; for `COc1ccc(CC(C)(C)NCC(O)COc2cccc(C)c2)cc1` (stereo not drawn) [Compound 45, N-[2-Hydroxy-3-(3-methylphenoxy)propyl]-1,1-dimethyl-2-(4-methoxyphenyl)ethylamine Hydrochloride], less than 10 µM; for `COc1ccc(CC(C)(C)NC[C@@H](O)COc2ccc3c(c2)[nH]c2ccccc23)cc1` [Compound 167], less than 1 µM.
In the case of `COc1ccc(CC(C)(C)NCC(O)COCCCCc2ccccc2)cc1` (stereo not drawn) [Compound 127, N-[2-hydroxy-3-(4-phenyl-butanoxy)propyl]-1,1-dimethyl-2-(4-methoxyphenyl)ethylamine], the IC50 was less than 1 µM.
On the same count and under the same terms, then `COc1ccc(CC(C)(C)NCC(O)COc2ccc(-c3ccccc3)cc2)cc1` (stereo not drawn) [Compound 62, N-[2-Hydroxy-3-(4-phenylphenoxy)propyl]-1,1-dimethyl-2-(4-methoxyphenyl)ethylamine], with more than 50 µM; and `CCc1cccc(OCC(O)CNC(C)(C)Cc2ccc(OC)cc2)c1` (stereo not drawn) [Compound 150, N-[2-Hydroxy-3-(3-ethylphenoxy)propyl)-1,1-dimethyl-2-(4-methoxyphenyl)ethylamine Hydrochloride], with less than 1 µM.
On to `CC(C)(Cc1ccc(Cl)cc1)NCC(O)COc1ccccc1` (stereo not drawn) [Compound 103, N-(2-Hydroxy-3-phenoxypropyl)-1,1-dimethyl-2-(4-chlorophenyl)ethylamine Hydrochloride], for which the half-inhibitory concentration (IC50) is less than 10 µM.
As for `COc1ccc(CC(C)(C)NCC(O)COc2cccc3c(OC)cccc23)cc1` (stereo not drawn) [Compound 130, N-[2-hydroxy-3-(5-methoxy-1-napthoxy)propyl]-1,1-dimethyl-2-(4-methoxyphenyl)ethylamine Hydrochloride], the IC50 is less than 1 µM.
Same read-out and setting: for `COc1ccc(CC(C)(C)NC[C@H](O)COc2cccc3ccccc23)cc1` (single isomer, unassigned) [Compound 106, Hydrochloride] the value was less than 1 µM.
Turning to `COc1ccc(CC(C)(C)NCCCOc2ccccc2)cc1` [Compound 17, N-(3-Phenoxypropyl)-1,1-dimethyl-2-(4-methoxyphenyl)ethylamine Hydrochloride], the IC50 is less than 50 µM.
On the same count and under the same terms, for `COc1ccc(CC(C)(C)NCC(O)COc2ccccc2C(F)(F)F)cc1` (stereo not drawn) [Compound 47, N-[2-Hydroxy-3-(2-trifluoromethylphenoxylpropyl]-1,1-dimethyl-2-(4-methoxyphenyl)ethylamine Hydrochloride] the value was less than 1 µM.
For `COc1ccc(CC(C)(C)NCC(O)COc2ccccc2C(C)(C)C)cc1` (stereo not drawn) [Compound 48, N-[2-Hydroxy-3-(2-t-butylphenoxy)propyl]-1,1-dimethyl-2-(4-methoxyphenyl)ethylamine Hydrochloride], the IC50 is less than 10 µM.
For `COc1ccc(CC(C)(C)NCC(O)COc2ccccc2)cc1` (stereo not drawn) [Compound 3, N-(2-Hydroxy-3-phenoxypropyl)-1,1-dimethyl-2-(4-methoxyphenyl)ethylamine Hydrochloride], the IC50 is less than 10 µM.
As for `COc1ccc(CC(C)(C)NCC(O)COc2ccc(OC(F)(F)F)cc2)cc1` (stereo not drawn) [Compound 152, N-[2-hydroxy-3-(4-trifluoromethoxyphenoxy)propyl)-1,1-dimethyl-2-(4-methoxyphenyl)ethylamine Hydrochloride], the IC50 was less than 10 µM.
Turning to `COc1ccc(CC(C)(C)NCC(O)COc2ccc(Cl)cc2Cl)cc1` (stereo not drawn) [Compound 138, N-[2-hydroxy-3-(2,4-dichlorophenoxy)propyl]-1,1-dimethyl-2-(4-methoxyphenyl)ethylamine Hydrochloride], the IC50 is less than 1 µM.
Still for that read-out and setting: for `COc1ccc(CC(C)(C)NCC(O)COc2ccccc2)cc1C` (stereo not drawn) [Compound 117, N-(2-Hydroxy-3-phenoxypropyl)-1,1-dimethyl-2-(4-methoxy-3-methylphenyl)ethylamine Hydrochloride] the value was less than 1 µM.

The subject of a further experiment is Parathyroid cells.
Experiment: not given
Particulars: read-out: EC50 for mobilization of intracellular calcium; cited from earlier work. (In general: Calcium flux is commonly read through the fluorescence of an indicator in the cells.)
In the case of gentamicin, the EC50 was 150 µM.
With `[H]/N=C(/N)N[C@H]1[C@H](O)[C@@H](O)[C@H](O[C@@H]2O[C@@H](C)[C@](O)(C=O)[C@H]2O[C@@H]2O[C@@H](CO)[C@H](O)[C@@H](O)[C@@H]2NC)[C@@H](N/C(N)=N\[H])[C@@H]1O` [streptomycin], the EC50 was 600 µM.

The values are drawn from patent publication US7202261B2, “Calcilytic compounds” (NPS Pharmaceuticals, Inc., priority 1996, dated 2007).
